The text below walks through data of ChEMBL document CHEMBL1201862, “PubChem BioAssay data set” (2004).

The target in experiment [1] is Glyceraldehyde-3-phosphate dehydrogenase (Homo sapiens, UniProt P04406).
The target of experiment [2] is T1, Alkaline phosphatase, tissue-nonspecific isozyme (Homo sapiens, UniProt P05186).
T1 sequence (P05186 whole entry): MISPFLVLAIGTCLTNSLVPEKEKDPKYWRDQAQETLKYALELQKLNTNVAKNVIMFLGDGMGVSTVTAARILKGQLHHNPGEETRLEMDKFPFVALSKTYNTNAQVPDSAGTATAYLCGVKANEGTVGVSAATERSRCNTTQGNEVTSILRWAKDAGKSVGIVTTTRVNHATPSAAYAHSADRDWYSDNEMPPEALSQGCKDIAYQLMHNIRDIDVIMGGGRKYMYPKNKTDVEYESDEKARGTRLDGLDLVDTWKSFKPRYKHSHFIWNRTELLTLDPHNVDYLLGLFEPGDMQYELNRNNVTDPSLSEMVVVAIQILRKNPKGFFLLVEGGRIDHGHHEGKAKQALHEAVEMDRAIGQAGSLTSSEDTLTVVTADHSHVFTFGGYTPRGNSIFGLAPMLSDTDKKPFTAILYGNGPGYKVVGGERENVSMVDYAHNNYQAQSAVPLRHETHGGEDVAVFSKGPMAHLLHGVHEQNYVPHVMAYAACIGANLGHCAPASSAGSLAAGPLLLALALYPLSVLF
Nature of the experiment: human TNAP enzyme inhibitors, SAR follow-up, biochemical, luminescent, dose response (AID 1056).

Experiment [3] concerns the target Eukaryotic translation initiation factor 4E (Mus musculus, UniProt P63073). Nature of the experiment: eIF4E–eIF4G protein interaction inhibitors, dose response, biochemical, TR-FRET (AID 855).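 Also: potency for disrupting eIF4E binding to eIF4GI seen as loss of FRET.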 The experiment is classed as functional.
Experiment [4] concerns the target T2, Acyl-homoserine lactone acylase PvdQ (Pseudomonas aeruginosa (strain LESB58), UniProt Q9I194).
T2 sequence (Q9I194 whole entry): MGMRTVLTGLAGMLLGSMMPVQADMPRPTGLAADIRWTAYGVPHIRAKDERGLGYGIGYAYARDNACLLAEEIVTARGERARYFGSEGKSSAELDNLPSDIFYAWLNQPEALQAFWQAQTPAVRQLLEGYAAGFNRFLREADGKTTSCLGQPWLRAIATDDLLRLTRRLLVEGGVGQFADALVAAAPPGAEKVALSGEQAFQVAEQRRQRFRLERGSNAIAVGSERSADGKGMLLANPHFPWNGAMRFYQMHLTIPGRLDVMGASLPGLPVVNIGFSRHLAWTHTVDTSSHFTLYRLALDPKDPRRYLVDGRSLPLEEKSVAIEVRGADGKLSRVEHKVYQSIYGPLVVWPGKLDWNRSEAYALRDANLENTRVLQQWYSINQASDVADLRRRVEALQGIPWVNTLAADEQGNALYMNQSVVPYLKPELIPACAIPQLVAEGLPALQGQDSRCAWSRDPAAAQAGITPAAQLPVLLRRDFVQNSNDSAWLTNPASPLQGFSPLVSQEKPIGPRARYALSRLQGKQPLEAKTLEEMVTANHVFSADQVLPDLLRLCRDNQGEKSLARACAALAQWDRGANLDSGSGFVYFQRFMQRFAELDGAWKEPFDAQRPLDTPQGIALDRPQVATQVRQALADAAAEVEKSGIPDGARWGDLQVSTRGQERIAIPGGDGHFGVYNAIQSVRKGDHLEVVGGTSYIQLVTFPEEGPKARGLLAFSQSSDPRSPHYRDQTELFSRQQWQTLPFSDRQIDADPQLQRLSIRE
Nature of the experiment: P. aeruginosa PvdQ acylase inhibitors, dose response, biochemical, fluorescence, plate reader and imaging, cherry-picks (AID 493231).

Experiment [5] addresses Luciferin 4-monooxygenase (Photinus pyralis, UniProt P08659). Nature of the experiment: Counter Screen for Luciferase-based Assay Positives. [Related pubchem assays: 620, 618, 411 ]. Background: A counterscreen serves to expose hits that act by an unwanted route or on another target.
For another experiment, the system named is HT-1080. Nature of the experiment: cytotoxicity in HT1080 fibrosarcoma cells, cell-based, fluorescence readout (AID 620). It is filed as functional. The conditions noted are these: Homo sapiens.
For a further experiment, the system named is HEK293. Nature of the experiment: inhibitors of LMP1-driven NF-kB reporter, dose response, cell-based, HEK293, luciferase, cherry-pick (AID 588343). It is filed as functional. The conditions noted are these: Homo sapiens.
In experiment [6] the target is G-protein coupled receptor 55 (Homo sapiens, UniProt Q9Y2T6). Nature of the experiment: GPR55 agonists via beta-arrestin recruitment, primary screen, imaging, U2OS cells, beta-arrestin-GFP redistribution (AID 1961). The experiment is classed as functional. A general note: Recruitment of arrestin is a read-out of receptor activation apart from second messengers.
Another experiment addresses Cytochrome P450 3A4 (Homo sapiens, UniProt P08684).
In experiment [7] the target is FAD-linked sulfhydryl oxidase ALR (Homo sapiens, UniProt P55789). Nature of the experiment: inhibitors of human ALR sulfhydryl oxidase, dose response, biochemical, H2O2 detection, luminescence, cherry-pick (AID 493248).
Experiment [8] deals with T3, Microphthalmia-associated transcription factor (Homo sapiens, UniProt O75030).
T3 sequence (O75030 whole entry): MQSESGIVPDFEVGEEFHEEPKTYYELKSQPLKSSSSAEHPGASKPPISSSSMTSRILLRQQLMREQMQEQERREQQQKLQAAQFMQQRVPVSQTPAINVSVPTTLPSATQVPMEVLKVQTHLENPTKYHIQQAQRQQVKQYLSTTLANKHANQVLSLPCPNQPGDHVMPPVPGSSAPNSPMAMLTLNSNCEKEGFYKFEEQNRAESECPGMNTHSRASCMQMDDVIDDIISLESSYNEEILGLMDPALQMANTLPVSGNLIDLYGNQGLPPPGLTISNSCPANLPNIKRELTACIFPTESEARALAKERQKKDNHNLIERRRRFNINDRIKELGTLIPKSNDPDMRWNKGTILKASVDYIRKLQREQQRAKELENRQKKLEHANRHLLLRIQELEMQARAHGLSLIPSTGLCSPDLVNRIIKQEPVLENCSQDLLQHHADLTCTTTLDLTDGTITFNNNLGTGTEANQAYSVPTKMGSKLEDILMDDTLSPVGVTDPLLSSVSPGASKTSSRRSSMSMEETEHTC
Nature of the experiment: TRPM1 promoter luciferase signal decrease, dose response, MITF inhibitor project, cell-based, SK-MEL-5, cherry-picked, set 3 (AID 493073).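 Also: SK-MEL-5 melanoma cells with luciferase driven by the MITF target TRPM1 promoter.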 The experiment is classed as functional.

In experiment [9] the target is T4, Replicative DNA helicase DnaB (Mycobacterium tuberculosis, UniProt P9WMR3).
T4 sequence (P9WMR3 whole entry): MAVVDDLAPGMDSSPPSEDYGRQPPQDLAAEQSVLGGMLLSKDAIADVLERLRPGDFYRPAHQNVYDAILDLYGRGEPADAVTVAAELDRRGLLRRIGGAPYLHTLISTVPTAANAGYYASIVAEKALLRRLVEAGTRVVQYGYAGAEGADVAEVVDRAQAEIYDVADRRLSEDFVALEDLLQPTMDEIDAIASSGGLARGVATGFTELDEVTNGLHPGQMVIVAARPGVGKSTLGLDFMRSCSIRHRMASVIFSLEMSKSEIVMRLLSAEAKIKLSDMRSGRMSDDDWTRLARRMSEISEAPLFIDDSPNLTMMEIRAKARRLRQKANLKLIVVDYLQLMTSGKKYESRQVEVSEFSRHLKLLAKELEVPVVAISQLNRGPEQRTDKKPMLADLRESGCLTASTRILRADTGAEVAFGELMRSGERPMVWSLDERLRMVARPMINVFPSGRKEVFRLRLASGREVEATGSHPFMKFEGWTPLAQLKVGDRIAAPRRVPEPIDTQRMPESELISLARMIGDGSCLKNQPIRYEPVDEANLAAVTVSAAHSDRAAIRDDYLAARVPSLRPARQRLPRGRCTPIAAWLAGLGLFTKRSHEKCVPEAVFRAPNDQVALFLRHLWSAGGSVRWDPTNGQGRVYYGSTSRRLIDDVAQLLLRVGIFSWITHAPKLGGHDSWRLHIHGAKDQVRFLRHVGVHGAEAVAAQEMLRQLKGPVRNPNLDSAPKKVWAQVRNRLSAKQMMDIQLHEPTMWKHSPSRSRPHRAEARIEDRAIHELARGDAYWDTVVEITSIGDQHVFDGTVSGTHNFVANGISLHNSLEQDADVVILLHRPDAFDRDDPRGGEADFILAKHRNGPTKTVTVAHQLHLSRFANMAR
Nature of the experiment: DnaB intein splicing inhibitors, dose response, biochemical, cell-free fluorescence (AID 449749). The experiment is classed as functional.

In the next experiment the target is T5, Protein RecA (Mycobacterium tuberculosis, UniProt P9WHJ3).
T5 sequence (P9WHJ3 whole entry): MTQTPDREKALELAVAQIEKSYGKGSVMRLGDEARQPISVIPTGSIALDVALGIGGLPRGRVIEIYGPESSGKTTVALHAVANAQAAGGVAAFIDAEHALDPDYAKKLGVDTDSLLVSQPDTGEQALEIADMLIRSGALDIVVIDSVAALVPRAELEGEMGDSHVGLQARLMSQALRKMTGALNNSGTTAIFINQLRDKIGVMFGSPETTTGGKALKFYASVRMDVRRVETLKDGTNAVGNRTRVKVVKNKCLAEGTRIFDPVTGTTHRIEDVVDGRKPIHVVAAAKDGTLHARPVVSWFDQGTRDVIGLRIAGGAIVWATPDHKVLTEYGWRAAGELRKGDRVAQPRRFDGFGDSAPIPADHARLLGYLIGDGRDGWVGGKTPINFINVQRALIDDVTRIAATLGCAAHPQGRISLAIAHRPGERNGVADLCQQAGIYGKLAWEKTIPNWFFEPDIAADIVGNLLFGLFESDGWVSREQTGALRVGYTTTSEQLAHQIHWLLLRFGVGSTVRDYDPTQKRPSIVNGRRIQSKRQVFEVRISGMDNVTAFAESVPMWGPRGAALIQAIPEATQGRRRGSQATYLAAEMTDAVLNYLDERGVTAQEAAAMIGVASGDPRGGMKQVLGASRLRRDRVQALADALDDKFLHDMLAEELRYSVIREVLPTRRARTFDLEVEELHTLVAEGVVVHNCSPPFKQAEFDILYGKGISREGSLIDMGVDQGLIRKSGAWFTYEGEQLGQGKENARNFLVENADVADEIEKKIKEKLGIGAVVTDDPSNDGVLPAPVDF
Nature of the experiment: Fluorescence Cell-Free Homogeneous Dose Retest to Identify Inhibitors of RecA-Intein Splicing Activity. [Related pubchem assays (depositor defined):AID2097, AID2223, AID489010, AID492950]. The experiment is classed as functional.

Experiment [10] can be described thus: THP-1 cell cytotoxicity, dose response, cytotoxicity control for non-replicating M. tuberculosis project (AID 489025). It is filed as functional.
A short description of experiment [11]: HepG2 cell cytotoxicity, dose response, cytotoxicity control for non-replicating M. tuberculosis project (AID 489018). The experiment is classed as functional. As to conditions: Mycobacterium tuberculosis.
Another experiment in a line: cells. The experiment is classed as functional.

The source made the active and inactive calls.

Sequence of Glyceraldehyde-3-phosphate dehydrogenase (P04406 whole entry): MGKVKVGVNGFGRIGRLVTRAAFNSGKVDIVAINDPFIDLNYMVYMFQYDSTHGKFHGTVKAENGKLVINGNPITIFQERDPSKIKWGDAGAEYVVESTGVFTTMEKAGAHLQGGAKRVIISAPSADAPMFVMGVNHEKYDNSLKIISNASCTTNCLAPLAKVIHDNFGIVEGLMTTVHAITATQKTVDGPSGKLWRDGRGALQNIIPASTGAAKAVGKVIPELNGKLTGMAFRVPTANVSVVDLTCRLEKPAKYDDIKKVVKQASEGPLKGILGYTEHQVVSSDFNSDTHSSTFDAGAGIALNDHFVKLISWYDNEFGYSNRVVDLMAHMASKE
Sequence of Luciferin 4-monooxygenase (P08659 whole entry): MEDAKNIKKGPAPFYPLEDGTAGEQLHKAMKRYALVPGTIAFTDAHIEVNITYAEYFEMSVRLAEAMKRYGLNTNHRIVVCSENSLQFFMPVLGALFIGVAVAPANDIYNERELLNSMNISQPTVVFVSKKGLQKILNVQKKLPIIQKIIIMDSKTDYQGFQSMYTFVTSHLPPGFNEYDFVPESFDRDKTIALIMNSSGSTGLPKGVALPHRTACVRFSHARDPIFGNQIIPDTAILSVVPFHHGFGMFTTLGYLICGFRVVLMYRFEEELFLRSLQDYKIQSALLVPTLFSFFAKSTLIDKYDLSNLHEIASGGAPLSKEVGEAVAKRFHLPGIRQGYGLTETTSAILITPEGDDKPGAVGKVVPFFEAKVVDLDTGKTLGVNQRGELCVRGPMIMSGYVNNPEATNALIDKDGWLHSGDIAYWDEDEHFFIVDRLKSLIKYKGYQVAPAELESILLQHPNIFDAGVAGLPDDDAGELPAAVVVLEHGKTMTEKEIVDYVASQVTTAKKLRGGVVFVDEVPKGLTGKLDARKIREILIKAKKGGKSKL
Sequence of G-protein coupled receptor 55 (Q9Y2T6 whole entry): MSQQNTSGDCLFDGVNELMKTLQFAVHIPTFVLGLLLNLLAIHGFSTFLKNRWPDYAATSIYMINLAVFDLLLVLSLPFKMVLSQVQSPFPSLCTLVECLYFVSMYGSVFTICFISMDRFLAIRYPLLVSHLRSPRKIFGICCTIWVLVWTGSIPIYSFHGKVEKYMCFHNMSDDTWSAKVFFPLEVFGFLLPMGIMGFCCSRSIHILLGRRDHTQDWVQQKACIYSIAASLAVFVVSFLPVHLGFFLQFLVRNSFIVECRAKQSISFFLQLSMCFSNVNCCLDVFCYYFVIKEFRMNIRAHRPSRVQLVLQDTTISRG
Sequence of Cytochrome P450 3A4 (P08684 whole entry): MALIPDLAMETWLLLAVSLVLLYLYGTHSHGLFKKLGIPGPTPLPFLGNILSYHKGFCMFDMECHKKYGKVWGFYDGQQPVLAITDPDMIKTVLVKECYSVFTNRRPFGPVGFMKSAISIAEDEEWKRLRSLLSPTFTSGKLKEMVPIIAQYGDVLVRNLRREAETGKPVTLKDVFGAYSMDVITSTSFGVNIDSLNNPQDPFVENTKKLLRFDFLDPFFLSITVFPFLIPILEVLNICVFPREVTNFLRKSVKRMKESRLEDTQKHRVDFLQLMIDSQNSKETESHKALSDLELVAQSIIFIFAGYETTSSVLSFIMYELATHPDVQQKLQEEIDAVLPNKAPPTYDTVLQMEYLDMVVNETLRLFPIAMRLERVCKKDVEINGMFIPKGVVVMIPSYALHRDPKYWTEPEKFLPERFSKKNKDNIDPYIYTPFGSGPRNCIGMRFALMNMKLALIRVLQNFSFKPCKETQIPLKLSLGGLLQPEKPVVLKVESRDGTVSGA
Sequence of FAD-linked sulfhydryl oxidase ALR (P55789 whole entry): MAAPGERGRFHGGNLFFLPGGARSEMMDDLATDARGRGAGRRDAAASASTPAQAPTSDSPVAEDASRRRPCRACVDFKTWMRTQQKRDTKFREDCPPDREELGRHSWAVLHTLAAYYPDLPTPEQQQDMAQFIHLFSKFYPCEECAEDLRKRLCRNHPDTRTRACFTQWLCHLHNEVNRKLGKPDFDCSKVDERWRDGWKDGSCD
Sequence of Eukaryotic translation initiation factor 4E (P63073 whole entry): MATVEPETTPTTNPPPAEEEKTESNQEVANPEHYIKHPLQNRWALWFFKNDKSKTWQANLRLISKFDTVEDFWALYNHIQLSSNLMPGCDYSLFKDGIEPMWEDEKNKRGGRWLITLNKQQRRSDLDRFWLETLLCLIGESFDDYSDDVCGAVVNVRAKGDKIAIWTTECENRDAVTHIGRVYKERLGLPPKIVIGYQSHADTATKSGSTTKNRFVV

As to `Cn1nc(-c2ccc(F)cc2)cc1C(=O)O`, the IC50 was > 100 µM (not active) in experiment [1] and > 100 µM (inactive) in [2].

On to `CC(=O)Nc1cccc(NC(=S)Nc2ccc(F)c(Cl)c2)c1`, for which, in experiment [3], the IC50 is 50 µM (inactive).

On to `COc1cccc(Cc2nnc(N3C(=O)[C@H]4CCCC[C@H]4C3=O)[nH]2)c1`, for which the results for the IC50 in experiment [1] and in experiment [2] were > 100 µM (not active) and 1.63 µM (active), respectively.

With `O=C(NC1CCCCCCC1)c1cccc(Cl)c1`, the concentration at half-maximal activity (AC50) in [4] was 5.02 µM (active).

As to `Cc1cc(C(=O)CSc2nnc(-c3cccs3)o2)c(C)n1-c1ccccc1`, the 50% effective concentration (EC50) in [5] is > 100 µM (not active); in the experiment on HT-1080, 22.6 µM (active). The AC50 in the experiment with HEK293 was 5.59 µM (active).

`N#CC1=C(N)OC2=C(CC/C2=C\c2ccccc2)C1c1ccccc1` (stereo not given): the EC50 in experiment [6] was > 32 µM (inactive). In addition, on Cytochrome P450 3A4, the AC50 was 39.8 µM (inconclusive).

With `O=C1c2ccccc2C(=O)N1c1nnc(-c2ccc(Cl)cc2)[nH]1`, the IC50 in [1] is > 100 µM (not active); in experiment [2], 2.49 µM (active).

For `O=C(NC1CCSC1)c1cccc(Cl)c1` (stereo not given), the AC50 in [4] is 4.11 µM (active).

With `Cc1nc2cc(-c3nc4cc(N)ccc4o3)ccc2[nH]1`, the concentration for a half-maximal effect (EC50) in experiment [5] is > 100 µM (not active); in the experiment on HT-1080 it was > 50 µM (not active). The AC50 in experiment [7] was 1.72 µM (active).

As for `CCSC1(SCC)N=C(N)C2(C#N)C(c3ccc(F)cc3)C12C#N` (stereo not given), the concentration for a half-maximal effect (EC50) in [6] was 1.86 µM (active); on Protein RecA it was 12.5 µM (active). In addition, the AC50 was 14 µM (active) in experiment [8] and 6.54 µM (active) in [9].

Regarding `C=CCn1c(C)cc(C2=NN=C(NCc3ccccc3)SC2)c1C`, the CC50 in [10] was 13.8 µM (active); in [11], > 20 µM (active). Besides, the IC50 in the experiment “cells” was 10.8 µM (active).

In the case of `CO/N=C/c1ccc(Sc2ccccc2)c([N+](=O)[O-])c1`, the concentration at half-maximal activity (AC50) in experiment [4] is 97.2 µM (active).

One may read the IC50 as the midpoint of a concentration-inhibition curve. A word on the AC50: it is the concentration giving half of the maximal activity seen. In general, EC50 refers to the midpoint of the concentration-response curve. By CC50 is commonly meant the concentration at which the toxic effect on the cells reaches its halfway point.
